Data from patent US8168628B2, “Conjugated psychotropic drugs and uses thereof” (Ramot at Tel-Aviv University Ltd., priority 2001, dated 2012).
Structures can show the parent of a compound that is named as a salt. Where two headings read alike, the source gives them in different places.

Tests used:
rats [1] = assay: D-Amphetamine-induced hyperactivity in rats; type: in vivo, rat; details: GABA alone, 5 mg/kg i.p. (FIGS. 22-25)
Experimental: D-Amphetamine-induced hyperactivity in rats: The efficacy of the chemical conjugates of the present invention was studied using the D-amphetamine-induced hyperactivity and motility model, which is known as one of the most established animal models for schizophrenia.
Naïve Wistar male rats were placed in individual boxes. In each experiment 4 rats were studied. Perphenazine or equimolar doses of its chemical conjugate AN-168 were administered intraperitoneally (ip) to the rats 30 minutes prior to intraperitoneal administration of amphetamine (2.5 mg/kg), or 90 minutes prior to oral administration of amphetamine (2.5 mg/kg). The animals locomotor activity was assessed using two parameters: climbing attempts of the animal on the barrel walls (as big movements) and head movement of the animal (as small movements). Assessment was recorded every 15 minutes for two hours. Each animal was tested at each time point for 120 seconds.
The climbing behavior of the rats in each group was measured as described hereinabove.

HL 60 = assay: Proliferation test, HL 60 cells; type: cell-based; details: Homo sapiens, linear regression of survival percentage
Experimental: (§1) Cell lines: Human prostate carcinoma (PC-3), human colon carcinoma (HT-29), murine melanoma (B-16) and its drug resistant subclone (B-16 MDR), mouse fibroblasts (3T3), myeloid leukemia (HL 60) and its drug resistant subclone (HL 60 MX2), endometrium cell line (MES SA) and its drug resistant subclone (MES DX5), jurkat T lymphoma and monocyte leukemia (U-937), were used in this study.
(§2) Proliferation of cancer and normal cells: Proliferation was measured by neutral red assay or by a fluorometric assay quantitating DNA content. In the neutral red assay, the neutral red is absorbed by lysosomes, thus causing coloring of living cells. Quantitative analysis is performed by colorimetric assay (ELISA reader at 550 nm). In the fluorometric assay, alamar blue is used as a redox indicator. Alamar blue fluorescence was measured at an excitation wavelength of 544 nm and an emission wavelength of […] (FLUOstar BMG Lab Technologies, Offenburg, Germany).
(§3) The cells were sub-cultured and the tested compounds were added thereto in increasing concentrations. The IC50 values were determined by linear regression of the survival percentage of the cells.

HL 60 MX2 (MDR) = assay: Proliferation test, HL 60 MX2 (MDR) cells; type: cell-based; details: Homo sapiens, HL60/MX2; linear regression of survival percentage
Experimental: as §1, §2, §3

HT-29 = assay: Proliferation test, HT-29 cells; type: cell-based; details: Homo sapiens, linear regression of survival percentage
Experimental: as §1, §2, §3

3T3 = assay: Proliferation test, 3T3 fibroblasts; type: cell-based; details: Mus musculus, NIH3T3; linear regression of survival percentage
Experimental: as §1, §2, §3

rats [2] = assay: Catalepsy in rats, “wall” test; details: i.p.; for induced catalepsy, SAR studies: compared with perphenazine (FIG. 2); for time course of catalepsy: over a period of 7 hours (FIGS. 4a, 4b)
Experimental: (§4) Animals: Young adult male rats (150-230 grams) were purchased from Harlan (Israel). Animals were divided 2-5/cage and housed in controlled conditions in the animal room for a week prior to the experiments. The experiments were conducted with naive animals, in a double blind procedure. In each experiment various treatment groups (about 5-10 animals each) were tested.
(§5) Catalepsy in rats: The manifestation of the extrapyramidal adverse effects induced by typical neuroleptics was evaluated by the appearance of stereotypic cataleptic behavior in rats following the neuroleptic treatment. Catalepsy was determined by two methods: (i) by measuring the time it took an animal hanging on a cage wall to move its hind legs and reach a flat surface (the “wall” test); and (ii) rats were placed on a flat surface with their anterior limbs leaning on a flat bar (5.5 cm height) resembling a piano playing position. Catalepsy was determined by the time it took an animal to descend and reach the flat surface (the “piano” test). The maximum time of follow up was 2 minutes and these measurements were performed hourly and individually for each animal. These tests provide an assessment of central dopamine (DA) blocking activity and are acceptable criteria for extrapyramidal symptoms induced by anti-psychotic drugs [10].
(§6) A control animals group was treated with the vehicle (lactic acid) only.

prolactin = assay: Prolactin blood level in rats (enzyme immunometric assay); type: in vivo, rat; details: i.p.; measured at 0, 60 and 120 min after treatment
Excerpt: Prolactin secretion: Typical neuroleptics induce hyperprolactinemia, which is frequently associated with gallactorehea and impaired gonadal and sexual function. The measurement of the circulatory plasma prolactin level was therefore used as a sensitive biochemical marker for the psychotropic activity of the known neuroleptics and the chemical conjugates of the present invention, following intraperitoneal or oral administration thereof. Thus, blood was collected from the punctured eye orbital of rats under ether anesthesia and the assay was performed using Millennia, rat prolactin enzyme immunometric assay-kit (DPC, USA).

B16 MDR = assay: Proliferation test, B16 MDR cells; type: cell-based, murine; details: Mus musculus; linear regression of survival percentage
Experimental: as §1, §2, §3

B16 = assay: Proliferation test, B16 melanoma cells; type: cell-based, murine; details: Mus musculus, B16; linear regression of survival percentage
Experimental: as §1, §2, §3

PC-3 = assay: Proliferation test, PC-3 cells; type: cell-based; details: Homo sapiens, linear regression of survival percentage
Experimental: as §1, §2, §3

Normal rat fibroblasts = assay: Proliferation test, normal rat fibroblasts; type: cell-based; details: Fibroblast, linear regression of survival percentage
Experimental: The primary cultures of rat fibroblasts were obtained from neonatal rats using known procedures.
as §2, §3

MES SA = assay: Proliferation test, MES SA cells; type: cell-based; details: Homo sapiens, linear regression of survival percentage
Experimental: as §1, §2, §3

MES SA DX5 (MDR) = assay: Proliferation test, MES SA DX5 (MDR) cells; type: cell-based; details: Homo sapiens, linear regression of survival percentage
Experimental: as §1, §2, §3

Jurkat T lymphoma cells = assay: Proliferation / viability test, Jurkat T lymphoma cells; type: cell-based; details: Homo sapiens, linear regression of survival percentage, read-out: IC50, JURKAT
Experimental: as §1, §2, §3

U-937 = assay: Proliferation test, U-937 cells; type: cell-based; details: Homo sapiens, linear regression of survival percentage
Experimental: as §1, §2, §3

rats [3] = assay: Behavioral criteria: sedation and mobility score in rats; details: i.p., 5 mg/kg perphenazine, 7.5 mg/kg fluphenazine or equimolar conjugate, score 0-3
Experimental: The effect of the administration of the tested compound on animals behavior was measured by evaluating the degree of animal sedation and mobility following the treatment described hereinabove, using a score of from 0 to 3. A score of 0 represents active and mobile animals, 1 represents calm and mobile animals, 2 represents calm and immobile animals and 3 represents completely ataxic and non-alert animals.

rats [4] = details: male, rat, in vivo, ip
Experimental: as §4, §5, §6

[5] = Stability upon prolonged storage (NMR); type: physicochemical; details: about 3 months storage; NMR spectroscopy
[6] = system: normal and transformed cells; assay: Proliferation tests, summary over the tested cell lines; type: cell-based; details: read-out: IC50 range, anti-proliferative activity
Experimental: as §2, §3

C6 rat glioma cells [7] = assay: Chemosensitization in C6 rat glioma cells; type: cell-based; details: Cisplatin 5-50 μM, neutral red (FIG. 17)
Experimental: Chemosensitization: The chemosensitizing effect of perphenazine and its chemical conjugate AN 168 was measured in vitro. Various concentrations of perphenazine or AN 168 were co-administered together with a chemotherapeutic agent to either C6 rat glioma cells or to Jurkat T lymphoma cells. Cells viability and/or DNA fragmentation following treatment with either the chemotherapeutic agent, perphenazine, AN 168, a combination of the chemotherapeutic agent and perphenazine or a combination of a chemotherapeutic agent with AN 168 were measured as described hereinabove.

C6 rat glioma cells [8] = assay: DNA fragmentation in C6 rat glioma cells (propidium iodide flow cytometry); type: cell-based; details: Cisplatin 30 μM; perphenazine 25 and 50 μM; AN 168 25, 50 μM (FIG. 18)
Experimental: Apoptosis and DNA fragmentation: Fragmentation of cell nuclei was studied by flow cytometric analysis of propidium iodide-stained cells. This analysis was performed using a FACScan (Becton Dickinson, Mountain View, Calif.) equipped with an argon ion laser adjusted to an excitation wavelength of 480 nm and with a Doublet Discrimination Module (DDM). Lysis II (Becton Dickinson) software was used for data acquisition. Apoptotic nuclear changes were evaluated according to the criteria of Nicolletti et al..
The DNA fragmentation was determined by the propidium iodide flow cytometric method described hereinabove.

[9] = 5 mg/kg perphenazine and equimolar conjugates
[10] = 5 mg/kg perphenazine, 7.5 mg/kg fluphenazine, equimolar conjugates, sum 0-420 min, normalized to parent drug (FIG. 3a)

NCCCC(=O)O [GABA, γ-aminobutyric acid, reference compound]
effect on amphetamine-induced climbing and head movement (rats [1]): did not modify the effect of amphetamine

CCCCC(=O)OCCN1CCN(CCCN2c3ccccc3Sc3ccc(C(F)(F)F)cc32)CC1 [AN-181, Fluphenazine Valerate]
IC50 (HL 60): 14.8 µM
IC50 (HL 60 MX2 (MDR)): 16.7 µM

CCC(=O)OCCN1CCN(CCCN2c3ccccc3Sc3ccc(Cl)cc32)CC1 [AN-177, Perphenazine Propionate]
IC50 (HT-29): 25.8 µM
IC50 (3T3): 24.6 µM
IC50 (HL 60): 15.1 µM
IC50 (HL 60 MX2 (MDR)): 17.6 µM
induced catalepsy, SAR studies (rats [2]; [9]): significant reduction of the induced catalepsy

O=C(CCCc1ccccc1)OCCN1CCN(CCCN2c3ccccc3Sc3ccc(Cl)cc32)CC1 [AN-130, Perphenazine 4-Phenylbutyrate]
time at which prolactin blood level peaked (prolactin): 60 min
IC50 (B16 MDR): 58 µM
IC50 (B16): 36.5 ± 8.1 µM
IC50 (HT-29): 17.3 ± 3.07 µM
IC50 (PC-3): 52.9 ± 28.7 µM
IC50 (Normal rat fibroblasts): 41.9 ± 16.8 µM
total catalepsy (rats [2]; 5 mg/kg perphenazine and equimolar conjugates, sum of determinations at 0, 60, 120 min (FIG. 1a)): catalepsy was induced

CCC(=O)OCCN1CCN(CCCN2c3ccccc3Sc3ccc(C(F)(F)F)cc32)CC1 [AN-179, Fluphenazine Propionate]
IC50 (HL 60): 18.2 µM
IC50 (HL 60 MX2 (MDR)): 21.4 µM

CCCC(=O)OCCN1CCN(CCCN2c3ccccc3Sc3ccc(C(F)(F)F)cc32)CC1 [AN-180, Fluphenazine Butyrate]
IC50 (HL 60): 19 µM
IC50 (HL 60 MX2 (MDR)): 18.8 µM
IC50 (MES SA): 12 µM
IC50 (MES SA DX5 (MDR)): 12.7 µM
IC50 (Jurkat T lymphoma cells): 10.4 µM
IC50 (U-937): 12.2 µM
total catalepsy (rats [2]; [10]): reduced catalepsy significantly
time course of catalepsy (rats [2]): lower catalepsy
sedation and mobility score, 30 min (rats [3]): 1
sedation and mobility score, 60 min (rats [3]): 2
sedation and mobility score, 90 min (rats [3]): 3
sedation and mobility score, 120 min (rats [3]): 2
sedation and mobility score, 180 min (rats [3]): 1
sedation and mobility score, 240 min (rats [3]): 1

OCCN1CCN(CCCN2c3ccccc3Sc3ccc(C(F)(F)F)cc32)CC1 [Fluphenazine, fluphenazine, reference compound]
time at which prolactin blood level peaked (prolactin): 60 min
time course of catalepsy (rats [4]): displayed catalepsy during the measured 7 hours

NCCCC(=O)OCCN1CCN(CCCN2c3ccccc3Sc3ccc(C(F)(F)F)cc32)CC1 [AN-187, fluphenazine 4-Aminobutyrate Trihydrochloride]
time at which prolactin blood level peaked (prolactin): 60 min
IC50 (HL 60): 18.6 µM
IC50 (HL 60 MX2 (MDR)): 17.1 µM
IC50 (MES SA): 14.4 µM
IC50 (MES SA DX5 (MDR)): 9.47 µM
IC50 (Jurkat T lymphoma cells): 10.3 µM
IC50 (U-937): 18.9 µM
stability upon prolonged storage [5]: does not tend to decompose upon a prolonged storage
total catalepsy (rats [2]; [10]): reduced it considerably
catalepsy at the end of the 7-hours period (rats [2]; equimolar to 7.5 mg/kg fluphenazine (FIG. 4b)): abolished at the end of the 7-hours period
time course of catalepsy (rats [2]): lower catalepsy
sedation and mobility score, 30 min (rats [3]): 1
sedation and mobility score, 60 min (rats [3]): 2
sedation and mobility score, 90 min (rats [3]): 2
sedation and mobility score, 120 min (rats [3]): 2
sedation and mobility score, 180 min (rats [3]): 1
sedation and mobility score, 240 min (rats [3]): 1

CCCC(=O)O [BA, butyric acid, reference compound]
IC50 (B16 MDR): 8000 ± 546 µM
IC50 (B16): 1300 ± 113 µM
IC50 (HT-29): 7170 ± 2030 µM
IC50 (Normal rat fibroblasts): 5540 µM
IC50 [6]: 1000 to 8000 µM

N.N.[Cl][Pt][Cl] [Cisplatin, reference compound]
cells viability, Cisplatin alone (C6 rat glioma cells [7]): completely resistant
DNA fragmentation (C6 rat glioma cells [8]): no effect of DNA fragmentation

O=C(O)CCCc1ccccc1 [PBA, 4-phenylbutyric acid]
IC50 [6]: 2000 to 12000 µM

CCCCC(=O)OCCN1CCN(CCCN2c3ccccc3Sc3ccc(Cl)cc32)CC1 [AN-178, Perphenazine Valerate]
IC50 (HT-29): 11.5 µM
IC50 (3T3): 18.6 µM
induced catalepsy, SAR studies (rats [2]; [9]): significant reduction of the induced catalepsy
